Data as given in ChEMBL document CHEMBL5291721, “A preclinical secondary pharmacology resource illuminates target-adverse drug reaction associations of marketed drugs” (Nat Commun, 2023).

Tests used:
[1] = biological target: T1, Peroxisome proliferator-activated receptor gamma (Homo sapiens, UniProt P37231); format: functional
T1 sequence (P37231 whole entry): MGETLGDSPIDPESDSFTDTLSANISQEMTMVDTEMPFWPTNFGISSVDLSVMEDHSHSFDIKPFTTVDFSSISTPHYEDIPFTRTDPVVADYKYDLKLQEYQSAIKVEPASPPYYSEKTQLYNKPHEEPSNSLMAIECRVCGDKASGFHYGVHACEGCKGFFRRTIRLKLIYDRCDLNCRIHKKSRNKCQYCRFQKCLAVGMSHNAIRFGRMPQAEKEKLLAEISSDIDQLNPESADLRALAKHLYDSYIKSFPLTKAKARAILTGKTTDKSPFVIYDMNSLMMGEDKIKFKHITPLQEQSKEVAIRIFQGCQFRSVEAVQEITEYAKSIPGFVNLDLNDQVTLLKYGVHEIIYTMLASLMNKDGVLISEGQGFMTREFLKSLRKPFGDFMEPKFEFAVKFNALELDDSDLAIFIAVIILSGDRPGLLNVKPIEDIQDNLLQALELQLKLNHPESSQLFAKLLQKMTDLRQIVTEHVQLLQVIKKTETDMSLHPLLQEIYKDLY

Histamine H2 receptor = Histamine H2 receptor (Homo sapiens, UniProt P25021)
Sequence of Histamine H2 receptor (P25021 whole entry): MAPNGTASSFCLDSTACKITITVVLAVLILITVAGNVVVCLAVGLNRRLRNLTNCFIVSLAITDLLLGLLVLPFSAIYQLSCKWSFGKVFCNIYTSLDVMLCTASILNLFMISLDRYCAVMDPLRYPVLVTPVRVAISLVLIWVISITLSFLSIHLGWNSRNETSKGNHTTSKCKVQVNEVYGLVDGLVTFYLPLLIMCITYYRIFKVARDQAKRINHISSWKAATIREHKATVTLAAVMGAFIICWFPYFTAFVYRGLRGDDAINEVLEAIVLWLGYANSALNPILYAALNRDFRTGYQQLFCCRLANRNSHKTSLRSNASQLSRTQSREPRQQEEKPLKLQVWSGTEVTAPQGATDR

Progesterone receptor = biological target: T2, Progesterone receptor (Homo sapiens, UniProt P06401)
T2 sequence (P06401 whole entry): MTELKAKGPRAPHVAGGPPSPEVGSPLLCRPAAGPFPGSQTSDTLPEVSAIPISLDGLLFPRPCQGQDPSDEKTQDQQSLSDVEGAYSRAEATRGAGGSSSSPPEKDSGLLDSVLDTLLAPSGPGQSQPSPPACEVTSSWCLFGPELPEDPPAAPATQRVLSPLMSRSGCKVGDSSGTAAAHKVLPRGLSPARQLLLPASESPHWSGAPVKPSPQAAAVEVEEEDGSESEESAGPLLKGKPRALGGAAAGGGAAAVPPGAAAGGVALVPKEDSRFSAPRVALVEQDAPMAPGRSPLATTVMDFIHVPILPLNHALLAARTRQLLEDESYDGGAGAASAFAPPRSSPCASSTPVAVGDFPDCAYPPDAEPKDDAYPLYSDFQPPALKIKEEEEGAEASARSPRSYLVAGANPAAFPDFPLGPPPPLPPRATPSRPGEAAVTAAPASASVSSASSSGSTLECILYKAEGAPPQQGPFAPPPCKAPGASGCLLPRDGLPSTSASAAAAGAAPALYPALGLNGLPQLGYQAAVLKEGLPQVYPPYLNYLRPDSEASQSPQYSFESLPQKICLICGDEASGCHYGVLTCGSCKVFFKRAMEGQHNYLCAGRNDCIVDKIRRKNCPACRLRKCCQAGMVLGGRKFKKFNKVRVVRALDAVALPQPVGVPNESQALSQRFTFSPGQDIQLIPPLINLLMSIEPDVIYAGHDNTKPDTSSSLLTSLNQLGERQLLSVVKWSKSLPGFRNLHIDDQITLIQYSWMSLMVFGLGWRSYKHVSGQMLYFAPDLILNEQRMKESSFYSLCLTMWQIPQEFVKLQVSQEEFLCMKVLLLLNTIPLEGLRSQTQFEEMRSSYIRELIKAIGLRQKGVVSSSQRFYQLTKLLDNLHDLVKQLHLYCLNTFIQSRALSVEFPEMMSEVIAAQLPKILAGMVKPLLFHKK

Estrogen receptor [2] = biological target: T3, Estrogen receptor (Homo sapiens, UniProt P03372); format: functional
T3 sequence (P03372 whole entry): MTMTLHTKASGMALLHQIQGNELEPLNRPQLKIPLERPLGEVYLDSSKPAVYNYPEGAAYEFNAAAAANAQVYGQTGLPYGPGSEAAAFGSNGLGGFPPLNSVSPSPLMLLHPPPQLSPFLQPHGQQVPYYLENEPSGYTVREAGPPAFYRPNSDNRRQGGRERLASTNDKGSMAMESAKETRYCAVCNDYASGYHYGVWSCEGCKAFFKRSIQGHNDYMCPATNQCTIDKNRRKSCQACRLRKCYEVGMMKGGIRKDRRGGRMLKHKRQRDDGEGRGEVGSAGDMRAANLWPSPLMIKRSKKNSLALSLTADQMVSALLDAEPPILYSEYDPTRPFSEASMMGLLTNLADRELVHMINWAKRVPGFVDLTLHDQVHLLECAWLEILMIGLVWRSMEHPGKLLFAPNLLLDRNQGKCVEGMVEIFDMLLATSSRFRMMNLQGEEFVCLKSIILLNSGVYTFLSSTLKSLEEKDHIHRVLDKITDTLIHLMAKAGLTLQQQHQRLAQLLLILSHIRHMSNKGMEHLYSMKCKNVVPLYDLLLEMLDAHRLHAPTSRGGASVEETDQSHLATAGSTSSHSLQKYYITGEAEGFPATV

Estrogen receptor [3] = biological target: T3, Estrogen receptor; format: functional; remark: listed apart in the source
[4] = biological target: Gamma-aminobutyric acid receptor subunit alpha-1/alpha-2/beta-2/gamma-2 (Homo sapiens, UniProt P14867+P18507+P47869+P47870); format: functional, cell-based
Sequence of Gamma-aminobutyric acid receptor subunit alpha-1/alpha-2/beta-2/gamma-2 (P14867 whole entry): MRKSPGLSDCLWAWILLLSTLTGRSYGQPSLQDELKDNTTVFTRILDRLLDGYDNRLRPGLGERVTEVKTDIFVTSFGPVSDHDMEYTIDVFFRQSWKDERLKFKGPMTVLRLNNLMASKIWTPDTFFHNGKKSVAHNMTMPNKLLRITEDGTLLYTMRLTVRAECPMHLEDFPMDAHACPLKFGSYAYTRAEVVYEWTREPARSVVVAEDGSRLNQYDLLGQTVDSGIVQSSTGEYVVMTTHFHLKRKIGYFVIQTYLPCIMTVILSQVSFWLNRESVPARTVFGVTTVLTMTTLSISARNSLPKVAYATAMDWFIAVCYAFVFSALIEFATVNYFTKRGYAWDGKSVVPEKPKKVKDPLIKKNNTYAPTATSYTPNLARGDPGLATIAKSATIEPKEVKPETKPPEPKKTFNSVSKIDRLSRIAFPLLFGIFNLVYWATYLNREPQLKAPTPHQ
Sequence of Gamma-aminobutyric acid receptor subunit alpha-1/alpha-2/beta-2/gamma-2 (P47870 whole entry): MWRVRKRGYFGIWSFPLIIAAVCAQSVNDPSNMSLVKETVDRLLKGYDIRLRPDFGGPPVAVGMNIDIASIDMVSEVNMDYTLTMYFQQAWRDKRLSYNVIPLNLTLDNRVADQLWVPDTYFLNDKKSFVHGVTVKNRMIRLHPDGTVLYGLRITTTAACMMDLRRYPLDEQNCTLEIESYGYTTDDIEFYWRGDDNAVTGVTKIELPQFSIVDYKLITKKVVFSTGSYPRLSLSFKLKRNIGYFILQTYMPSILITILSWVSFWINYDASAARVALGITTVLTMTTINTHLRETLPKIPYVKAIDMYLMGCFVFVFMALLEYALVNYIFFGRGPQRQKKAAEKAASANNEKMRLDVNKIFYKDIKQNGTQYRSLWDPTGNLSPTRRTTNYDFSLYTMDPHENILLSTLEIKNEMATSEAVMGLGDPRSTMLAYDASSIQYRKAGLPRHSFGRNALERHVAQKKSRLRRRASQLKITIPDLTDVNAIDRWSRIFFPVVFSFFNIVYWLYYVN
Sequence of Gamma-aminobutyric acid receptor subunit alpha-1/alpha-2/beta-2/gamma-2 (P18507 whole entry): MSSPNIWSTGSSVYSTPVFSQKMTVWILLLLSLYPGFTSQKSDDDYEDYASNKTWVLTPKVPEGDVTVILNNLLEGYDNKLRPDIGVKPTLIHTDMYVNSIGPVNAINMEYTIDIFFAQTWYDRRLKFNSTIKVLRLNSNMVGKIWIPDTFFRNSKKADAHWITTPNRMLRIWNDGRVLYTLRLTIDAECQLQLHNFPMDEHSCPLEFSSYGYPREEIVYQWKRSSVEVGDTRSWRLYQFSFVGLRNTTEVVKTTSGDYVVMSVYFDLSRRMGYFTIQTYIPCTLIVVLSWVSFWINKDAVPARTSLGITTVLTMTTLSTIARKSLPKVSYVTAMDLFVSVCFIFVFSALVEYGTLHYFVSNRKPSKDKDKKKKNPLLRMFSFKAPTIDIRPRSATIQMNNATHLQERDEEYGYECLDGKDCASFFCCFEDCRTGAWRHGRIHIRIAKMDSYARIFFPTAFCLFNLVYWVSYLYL
Sequence of Gamma-aminobutyric acid receptor subunit alpha-1/alpha-2/beta-2/gamma-2 (P47869 whole entry): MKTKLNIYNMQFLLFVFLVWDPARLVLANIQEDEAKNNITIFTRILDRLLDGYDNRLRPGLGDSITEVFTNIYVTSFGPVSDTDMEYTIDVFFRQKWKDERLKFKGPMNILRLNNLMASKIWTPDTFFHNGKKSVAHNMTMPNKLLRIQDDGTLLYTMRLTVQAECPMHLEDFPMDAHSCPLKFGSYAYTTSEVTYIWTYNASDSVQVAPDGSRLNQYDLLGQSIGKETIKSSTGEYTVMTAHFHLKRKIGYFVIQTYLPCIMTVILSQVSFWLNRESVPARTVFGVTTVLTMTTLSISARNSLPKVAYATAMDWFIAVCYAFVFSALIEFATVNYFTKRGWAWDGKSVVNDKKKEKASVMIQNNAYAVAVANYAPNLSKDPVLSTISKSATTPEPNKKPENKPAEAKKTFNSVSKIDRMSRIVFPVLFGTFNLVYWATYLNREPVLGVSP

[5] = biological target: T4, 5-hydroxytryptamine receptor 1A (Homo sapiens, UniProt P08908)
T4 sequence (P08908 whole entry): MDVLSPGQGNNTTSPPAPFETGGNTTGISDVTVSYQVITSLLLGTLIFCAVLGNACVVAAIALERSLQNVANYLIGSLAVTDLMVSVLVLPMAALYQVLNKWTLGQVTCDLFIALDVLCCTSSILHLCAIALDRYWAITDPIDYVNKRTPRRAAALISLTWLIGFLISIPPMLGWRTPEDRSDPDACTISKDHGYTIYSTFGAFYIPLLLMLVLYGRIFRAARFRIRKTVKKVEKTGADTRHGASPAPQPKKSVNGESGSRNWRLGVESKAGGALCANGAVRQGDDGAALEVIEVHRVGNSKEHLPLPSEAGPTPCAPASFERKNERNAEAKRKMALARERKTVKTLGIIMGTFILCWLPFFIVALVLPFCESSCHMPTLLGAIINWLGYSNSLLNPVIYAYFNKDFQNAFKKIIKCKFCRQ

D(1A) dopamine receptor = D(1A) dopamine receptor (Homo sapiens, UniProt P21728)
Sequence of D(1A) dopamine receptor (P21728 whole entry): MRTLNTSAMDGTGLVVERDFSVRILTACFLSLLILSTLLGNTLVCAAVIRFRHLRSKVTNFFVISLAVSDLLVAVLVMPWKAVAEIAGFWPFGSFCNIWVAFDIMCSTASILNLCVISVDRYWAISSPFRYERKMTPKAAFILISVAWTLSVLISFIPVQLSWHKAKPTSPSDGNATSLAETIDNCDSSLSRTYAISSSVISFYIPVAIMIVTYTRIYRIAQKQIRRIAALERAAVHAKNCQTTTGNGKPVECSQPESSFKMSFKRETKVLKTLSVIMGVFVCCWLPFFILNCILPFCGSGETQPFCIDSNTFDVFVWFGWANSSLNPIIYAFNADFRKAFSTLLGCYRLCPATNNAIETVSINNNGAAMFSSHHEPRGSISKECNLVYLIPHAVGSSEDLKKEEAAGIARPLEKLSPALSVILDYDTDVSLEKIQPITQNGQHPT

Mu-type opioid receptor = Mu-type opioid receptor (Homo sapiens, UniProt P35372); test: biochemical; format: functional
Sequence of Mu-type opioid receptor (P35372 whole entry): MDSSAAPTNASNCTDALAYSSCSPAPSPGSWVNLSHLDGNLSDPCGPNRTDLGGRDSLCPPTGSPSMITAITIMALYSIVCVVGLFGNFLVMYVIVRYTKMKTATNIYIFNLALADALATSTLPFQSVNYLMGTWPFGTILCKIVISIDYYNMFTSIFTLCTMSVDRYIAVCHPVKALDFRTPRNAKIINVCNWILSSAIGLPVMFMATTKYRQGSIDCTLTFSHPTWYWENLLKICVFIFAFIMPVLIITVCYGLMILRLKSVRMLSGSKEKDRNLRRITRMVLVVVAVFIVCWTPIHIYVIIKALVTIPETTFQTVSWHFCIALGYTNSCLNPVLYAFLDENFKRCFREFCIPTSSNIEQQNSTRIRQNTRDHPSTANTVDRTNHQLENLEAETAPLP
Note: assay procedure not described here.

Cc1c(C(=O)NN2CCCCC2)nn(-c2ccc(Cl)cc2Cl)c1-c1ccc(Cl)cc1 [RIMONABANT]
AC50 [1]: > 30 µM
AC50 (Histamine H2 receptor): 10.9 µM
AC50 (Progesterone receptor): > 30 µM
AC50 (Estrogen receptor [2]): > 30 µM
AC50 (Estrogen receptor [3]): > 10 µM
AC50 [4]: > 30 µM
AC50 [5]: > 10 µM

C1CCC(C(CC2CCCCN2)C2CCCCC2)CC1 (stereo not given) [PERHEXILINE]
AC50 [1]: > 30 µM
AC50 (Estrogen receptor [2]): > 30 µM
AC50 (Estrogen receptor [3]): > 30 µM
AC50 [4]: > 30 µM

C[C@H]1CNCCc2ccc(Cl)cc21 [LORCASERIN]
AC50 [1]: > 30 µM
AC50 (Estrogen receptor [2]): > 30 µM
AC50 (Estrogen receptor [3]): > 30 µM
AC50 [4]: > 30 µM

Cn1nnc2c(C(N)=O)ncn2c1=O [TEMOZOLOMIDE]
AC50 [1]: > 30 µM
AC50 (Histamine H2 receptor): > 10 µM
AC50 (Progesterone receptor): > 30 µM
AC50 (Estrogen receptor [2]): > 30 µM
AC50 (Estrogen receptor [3]): > 30 µM
AC50 [4]: > 30 µM
AC50 [5]: > 10 µM
AC50 (D(1A) dopamine receptor): > 10 µM

CCCN1C[C@H](CSC)C[C@@H]2c3cccc4[nH]cc(c34)C[C@H]21 [PERGOLIDE]
AC50 [1]: > 30 µM
AC50 (Histamine H2 receptor): 3.77 µM
AC50 (Progesterone receptor): > 30 µM
AC50 (Estrogen receptor [2]): > 30 µM
AC50 (Estrogen receptor [3]): > 30 µM
AC50 [4]: > 30 µM

COc1ccc(CC(C)(C)NC[C@H](O)c2cc(O)cc3c2OCC(=O)N3)cc1 [OLODATEROL]
AC50 [1]: > 30 µM
AC50 (Estrogen receptor [2]): > 30 µM
AC50 (Estrogen receptor [3]): > 30 µM
AC50 [4]: > 30 µM

c1ccc([C@H]2CN3CCSC3=N2)cc1 [LEVAMISOLE]
AC50 [1]: > 30 µM
AC50 (Progesterone receptor): > 30 µM
AC50 (Estrogen receptor [2]): > 30 µM
AC50 (Estrogen receptor [3]): > 30 µM
AC50 [4]: > 30 µM
AC50 (Mu-type opioid receptor): > 30 µM
AC50 (D(1A) dopamine receptor): > 30 µM

c1cnc(N2CCN(Cc3ccc4c(c3)OCO4)CC2)nc1 [PIRIBEDIL]
AC50 [1]: > 30 µM
AC50 (Estrogen receptor [2]): > 30 µM
AC50 (Estrogen receptor [3]): > 30 µM
AC50 [4]: > 30 µM

O=C(OCC(O)CO)c1ccccc1Nc1ccnc2cc(Cl)ccc12 (stereo not given) [GLAFENINE]
AC50 [1]: > 30 µM
AC50 (Estrogen receptor [2]): > 10 µM
AC50 (Estrogen receptor [3]): > 30 µM
AC50 [4]: > 30 µM

N[C@@H]1[C@H]2CN(c3nc4c(cc3F)c(=O)c(C(=O)O)cn4-c3ccc(F)cc3F)C[C@@H]12 [TROVAFLOXACIN]
AC50 [1]: > 30 µM
AC50 (Estrogen receptor [2]): > 30 µM
AC50 (Estrogen receptor [3]): > 30 µM
AC50 [4]: > 30 µM

CN(C)CCC=C1c2ccccc2C(C)(C)c2ccccc21
AC50 [1]: > 30 µM
AC50 (Estrogen receptor [2]): > 30 µM
AC50 (Estrogen receptor [3]): > 30 µM
AC50 [4]: > 30 µM

CNC1Cc2ccccc2N(C)c2ccccc21 (stereo not given) [METAPRAMINE]
AC50 [1]: > 30 µM
AC50 (Estrogen receptor [2]): > 30 µM
AC50 (Estrogen receptor [3]): > 30 µM
AC50 [4]: > 30 µM
